Results taken from patent US20230151025A1, “SUBSTITUTED THIAZOLOPYRIDINES, SALTS THEREOF AND THEIR USE AS HERBICIDALLY ACTIVE SUBSTANCES” (Bayer Aktiengesellschaft, priority 2020, published 2023).

What was measured:
Type in all cases: in vivo
[1] = system: Matricaria inodora (MATIN); experiment: Herbicidal post-emergence action (B), 1280 g/ha; conditions: rated visually after about 3 weeks vs untreated controls
Method in brief: (§1)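 Compounds formulated as wettable powder or emulsion concentrate, with 0.5% additive, sprayed at 600 l/ha onto one-leaf-stage plants grown in sandy loam for 2 to 3 weeks. Damage rated visually against untreated plants roughly 3 weeks later; 0% = like control, 100% = plants died.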

[2] = system: Digitaria sanguinalis (DIGSA); experiment: Herbicidal post-emergence action (B), 1280 g/ha; conditions: rated visually after about 3 weeks vs untreated controls
Method in brief: as §1

[3] = system: Kochia scoparia (KCHSC; Bassia scoparia); experiment: Herbicidal post-emergence action (B), 1280 g/ha
Method in brief: as §1

[4] = system: Abutilon theophrasti (ABUTH); experiment: Herbicidal post-emergence action (B), 1280 g/ha; conditions: rated visually after about 3 weeks vs untreated controls
Method in brief: as §1

[5] = system: Stellaria media (STEME); experiment: Herbicidal post-emergence action (B), 1280 g/ha
Method in brief: as §1

[6] = system: Amaranthus retroflexus (AMARE); experiment: Herbicidal post-emergence action (B), 1280 g/ha; conditions: rated visually after about 3 weeks vs untreated controls
Method in brief: as §1

[7] = system: Veronica persica (VERPE); experiment: Herbicidal post-emergence action (B), 1280 g/ha
Method in brief: as §1

[8] = system: Setaria viridis (SETVI); experiment: Herbicidal pre-emergence action (A), 1280 g/ha; conditions: visual grading after ca. 3 weeks vs untreated controls
Method in brief: (§2)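 Visual percent damage scored about 3 weeks after treatment relative to untreated pots (100% = complete kill, 0% = no effect). Compounds, as wettable powder or emulsifiable concentrate plus 0.5% additive in 600 l water/ha, were applied to the soil surface over freshly sown seeds in sandy loam, greenhouse-grown.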

[9] = system: Poa annua (POAAN); experiment: Herbicidal pre-emergence action (A), 1280 g/ha; conditions: visual grading after ca. 3 weeks vs untreated controls, 100% = plants have died off, 0% = as control plants
Method in brief: as §2

[10] = system: Alopecurus myosuroides (ALOMY); experiment: Herbicidal post-emergence action (B), 1280 g/ha; conditions: rated visually after about 3 weeks vs untreated controls
Method in brief: as §1

[11] = system: Echinochloa crus-galli (ECHCG); experiment: Herbicidal post-emergence action (B), 1280 g/ha; conditions: rated visually after about 3 weeks vs untreated controls
Method in brief: as §1

[12] = system: Setaria viridis (SETVI); experiment: Herbicidal post-emergence action (B), 1280 g/ha; conditions: rated visually after about 3 weeks vs untreated controls
Method in brief: as §1

[13] = system: Poa annua (POAAN); experiment: Herbicidal post-emergence action (B), 1280 g/ha; conditions: rated visually after about 3 weeks vs untreated controls
Method in brief: as §1

[14] = system: Alopecurus myosuroides (ALOMY); experiment: Herbicidal pre-emergence action (C), 320 g/ha; conditions: ca. 3 weeks
Text: (§3) ABUTH: Abutilon theophrasti AGSTE: Agrostis tenuis ALOMY: Alopecurus myosuroides AMARE Amaranthus retroflexus DIGSA: Digitaria sanguinalis ECHCG: Echinochloa crus-galli KCHSC: Kochia scoparia LOLRI: Lolium rigidum MATIN: Matricaria inodora POAAN: Poa annua POLCO: Polygonum convolvulus SETVI: Setaria viridis STEME: Stellaria media VERPE: Veronica persica VIOTR: Viola tricolor
(§4) Seeds of mono- and dicotyledonous weed plants and crop plants were sown, in plastic or organic planting pots, in sandy loam and covered with soil. The compounds according to the invention, formulated in the form of wettable powders (WP) or as emulsifiable concentrates (EC), were applied to the surface of the covering soil as aqueous suspension or emulsion, with the addition of 0.5% of an additive, at an application rate of 600 l of water/ha (converted).
(§5) Following treatment, the pots were placed in a greenhouse and kept under optimum growth conditions for the test plants. The visual grading of the damage to the test plants was carried out after ca. 3 weeks in comparison to untreated controls (herbicidal effect in percent (%): 100% effect=plants have died off, 0% effect=as control plants).
(§6) Tables C1 to C13 below show the effects of selected compounds of the general formula (I) according to table 1 on various harmful plants and an application rate corresponding to 320 g/ha obtained by the experimental procedure mentioned above.

[15] = system: Amaranthus retroflexus (AMARE); experiment: Herbicidal pre-emergence action (C), 320 g/ha; conditions: ca. 3 weeks
Text: as §3, §4, §5, §6

[16] = system: Veronica persica (VERPE); experiment: Herbicidal pre-emergence action (C), 320 g/ha; conditions: ca. 3 weeks
Text: as §3, §4, §5, §6

[17] = system: Lolium rigidum (LOLRI); experiment: Herbicidal pre-emergence action (C), 320 g/ha; conditions: ca. 3 weeks
Text: as §3, §4, §5, §6

[18] = system: Echinochloa crus-galli (ECHCG); experiment: Herbicidal pre-emergence action (C), 320 g/ha; conditions: ca. 3 weeks
Text: as §3, §4, §5, §6

[19] = system: Setaria viridis (SETVI); experiment: Herbicidal pre-emergence action (C), 320 g/ha; conditions: ca. 3 weeks
Text: as §3, §4, §5, §6

[20] = system: Polygonum convolvulus (POLCO); experiment: Herbicidal post-emergence action (D), 320 g/ha; conditions: ca. 3 weeks
Text: as §3
(§7) Seeds of mono- and dicotyledonous weed plants and crop plants were sown, in plastic or organic planting pots, in sandy loam, covered with soil and grown in a greenhouse under controlled growth conditions. 2 to 3 weeks after sowing, the test plants were sprayed in the single-leaf stage. The compounds according to the invention, formulated in form of wettable powders (WP) or as emulsifiable concentrates (EC), were sprayed onto the green plant parts as aqueous suspension or emulsion, with the addition of 0.5% of an additive, at an application rate of 600 l of water/ha (converted). The test plants were placed in the greenhouse for ca. 3 weeks under optimum growth conditions, and then the effect of the preparations was assessed visually in comparison with untreated controls (herbicidal effect in percent (%): 100% effect=plants have died off, 0% effect=as control plants).
(§8) Tables D1 to D13 below show the effects of selected compounds of the general formula (I) according to table 1 on various harmful plants and an application rate corresponding to 320 g/ha obtained by the experimental procedure mentioned above.

[21] = system: Amaranthus retroflexus (AMARE); experiment: Herbicidal post-emergence action (D), 320 g/ha; conditions: ca. 3 weeks
Text: as §3, §7, §8

[22] = system: Alopecurus myosuroides (ALOMY); experiment: Herbicidal pre-emergence action (A), 1280 g/ha; conditions: visual grading after ca. 3 weeks vs untreated controls, 100% = plants have died off, 0% = as control plants
Method in brief: as §2

[23] = system: Matricaria inodora (MATIN); experiment: Herbicidal pre-emergence action (A), 1280 g/ha; conditions: visual grading after ca. 3 weeks vs untreated controls
Method in brief: as §2

[24] = system: Digitaria sanguinalis (DIGSA); experiment: Herbicidal pre-emergence action (A), 1280 g/ha; conditions: visual grading after ca. 3 weeks vs untreated controls, 100% = plants have died off, 0% = as control plants
Method in brief: as §2

[25] = system: Kochia scoparia (KCHSC; Bassia scoparia); experiment: Herbicidal pre-emergence action (A), 1280 g/ha; conditions: visual grading after ca. 3 weeks vs untreated controls
Method in brief: as §2

[26] = system: Stellaria media (STEME); experiment: Herbicidal pre-emergence action (A), 1280 g/ha; conditions: visual grading after ca. 3 weeks vs untreated controls
Method in brief: as §2

[27] = system: Amaranthus retroflexus (AMARE); experiment: Herbicidal pre-emergence action (A), 1280 g/ha; conditions: visual grading after ca. 3 weeks vs untreated controls
Method in brief: as §2

[28] = system: Veronica persica (VERPE); experiment: Herbicidal pre-emergence action (A), 1280 g/ha; conditions: visual grading after ca. 3 weeks vs untreated controls
Method in brief: as §2

[29] = system: Lolium rigidum (LOLRI); experiment: Herbicidal pre-emergence action (A), 1280 g/ha; conditions: visual grading after ca. 3 weeks vs untreated controls, 100% = plants have died off, 0% = as control plants
Method in brief: as §2

[30] = system: Echinochloa crus-galli (ECHCG); experiment: Herbicidal pre-emergence action (A), 1280 g/ha; conditions: visual grading after ca. 3 weeks vs untreated controls, 100% = plants have died off, 0% = as control plants
Method in brief: as §2

[31] = system: Veronica persica (VERPE); experiment: Herbicidal post-emergence action (D), 320 g/ha; conditions: ca. 3 weeks
Text: as §3, §7, §8

[32] = system: Echinochloa crus-galli (ECHCG); experiment: Herbicidal post-emergence action (D), 320 g/ha; conditions: ca. 3 weeks
Text: as §3, §7, §8

[33] = system: Setaria viridis (SETVI); experiment: Herbicidal post-emergence action (D), 320 g/ha; conditions: ca. 3 weeks
Text: as §3, §7, §8

[34] = system: Alopecurus myosuroides (ALOMY); experiment: Herbicidal post-emergence action (D), 320 g/ha; conditions: ca. 3 weeks
Text: as §3, §7, §8

Structure (SMILES) | herbicidal activity MATIN [1] | herbicidal activity DIGSA [2] | herbicidal effect KCHSC [3] | herbicidal activity ABUTH [4] | herbicidal effect STEME [5] | herbicidal activity AMARE [6] | herbicidal effect VERPE [7] | herbicidal effect SETVI [8] | POAAN, herbicidal effect in percent (%) [9] | herbicidal activity ECHCG [11] | herbicidal activity POAAN [13] | herbicidal effect ALOMY [14] | herbicidal effect ECHCG [18] | herbicidal effect MATIN [23] | herbicidal effect KCHSC [25] | herbicidal effect STEME [26] | herbicidal effect AMARE [27] | herbicidal effect VERPE [28] | LOLRI, herbicidal effect in percent (%) [29] | ECHCG, herbicidal effect in percent (%) [30] | also measured
COc1ccccc1-c1nc2nc(SC)sc2cc1C [Example I-007] | 100% | 100% | 90% | 90% | 100% | 100% | 90% | 100% | 90% |  |  |  |  |  |  |  |  |  |  |  | 
C=Cc1cc2scnc2nc1-c1ccccc1F [Example I-072] | 90% | 90% | 90% |  | 90% | 100% | 100% | 100% | 100% | 90% | 100% | 100% | 100% | 100% | 100% | 90% | 100% | 100% | 100% | 100% | herbicidal activity ALOMY [10]: 100%; herbicidal activity SETVI [12]: 90%; herbicidal effect AMARE [15]: 80%; herbicidal effect VERPE [16]: 80%; herbicidal effect LOLRI [17]: 100%; herbicidal effect SETVI [19]: 100%; herbicidal effect POLCO [20]: 80%; herbicidal effect AMARE [21]: 80%; ALOMY, herbicidal effect in percent (%) [22]: 100%; DIGSA, herbicidal effect in percent (%) [24]: 100%
Fc1cccc(-c2ccc3scnc3n2)c1 [Example I-118] | 100% |  |  |  |  | 90% | 90% | 100% | 100% |  | 100% |  |  | 90% |  | 100% | 90% |  | 100% |  | DIGSA, herbicidal effect in percent (%) [24]: 100%
CCCc1cc2scnc2nc1-c1ccccc1F [Example I-185] |  |  | 90% |  |  | 100% | 90% |  | 100% | 90% |  | 90% | 100% | 90% | 90% | 90% |  | 90% | 100% | 100% | herbicidal activity SETVI [12]: 90%; herbicidal effect LOLRI [17]: 100%; herbicidal effect SETVI [19]: 100%; herbicidal effect POLCO [20]: 80%; herbicidal effect VERPE [31]: 90%; herbicidal effect ECHCG [32]: 80%; herbicidal effect SETVI [33]: 90%
Clc1cc2scnc2nc1-c1ccsc1 [Example I-191] | 90% |  | 90% | 90% | 90% |  | 100% | 100% | 100% | 100% | 100% | 90% | 100% | 90% | 90% | 100% | 90% | 100% | 100% | 100% | herbicidal activity ALOMY [10]: 100%; herbicidal effect ALOMY [34]: 80%; herbicidal effect ECHCG [32]: 90%; ALOMY, herbicidal effect in percent (%) [22]: 100%
